Results taken from US20200147039A1, “COMPOUNDS USEFUL IN INHIBITING HUMAN TREFOIL FACTOR 3” (NATIONAL UNIVERSITY OF SINGAPORE, priority 2017, published 2020).

How the values were obtained:
[1] = tested on: BT474; assay: qPCR analysis of mRNA levels of genes associated with oncogenic progression, BT474; assay type: cell-based, human; details: BT474, 10 μM
Experimental: (§1) Total RNA was isolated from cells using TRIzol Plus RNA Purification system as previously described in Pandey V et al., Endocrinology. 2010; 151(3):909-920. qPCR assays were performed as previously described in Pandey V et al., Endocrinology. 2010; 151(3):909-920; and Pandey V et al., Endocrinology. 2008; 149(8):3909-3919. Gene expression analysis was performed as previously described in Pandey V et al., Endocrinology. 2010; 151(3):909-920; and Pandey V et al., Endocrinology. 2008; 149(8):3909-3919.

[2] = tested on: HCC4006; assay: AlamarBlue cell viability assay, HCC4006; assay type: cell-based; details: Homo sapiens, Lung
Experimental: (§2) The human immortalized mammary epithelial cell lines, MCF10A, and MCF12A; and immortalized hepatocellular epithelial cell line, LO2 were obtained from the American Type Culture Collection (ATCC, Rockville, Md.) and were cultured as per ATCC propagation instructions. MC cell lines, MCF7, T47D, BT474, BT20, MDA-MB-361, MDA-MB-436, MDA-MB-468, and MDA-MB-231; endometrial carcinoma cell lines, Ishikawa, ECC1, RL95-2 and AN3; hepatocellular carcinoma cell lines, Hep3B, H2P, and H2M; colon carcinoma cell lines, DLD-1, and Caco-2; and prostate carcinoma cell lines, PC3, LNCaP, and DU145 were obtained from the American Type Culture Collection (ATCC, Rockville, Md.). Pancreatic carcinoma cell lines, AsPC-1 and BxPC-3; Lung carcinoma cell lines, HCC-827, NCI-H1975, HCC-4006, PC-14, and NCI-H1299; and Thyroid carcinoma cell lines HTH83, CAL62, T238, and OGK-M were obtained from Prof. H. Phillip Koeffler's laboratory at The Cancer Science Institute of Singapore, National University of Singapore (NUS). Gastric carcinoma cell lines, AGS, MKN-28, MKN-45, and A2-528 were obtained from Prof. […]
(§3) In table 9 IC50 values of compound 43 compound library in several cancer cell lines are tabulated, using an AlamarBlue® cell viability assay as previously described in Pandey V et al., Breast Cancer Res. 2014; 16(5):429. Statistical analysis was assessed by using GraphPad Prism5. […]

[3] = tested on: MCF7; assay: qPCR analysis of mRNA levels of genes associated with oncogenic progression, MCF7; assay type: cell-based, human; details: MCF7, 10 μM
Experimental: as §1

[4] = tested on: CAL62; assay: AlamarBlue cell viability assay, CAL62; assay type: cell-based; details: Homo sapiens, CAL-62, Thyroid
Experimental: as §2, §3

[5] = tested on: DLD-1; assay: AlamarBlue cell viability assay, DLD-1; assay type: cell-based; details: Homo sapiens, Colon
Experimental: as §2, §3

[6] = tested on: A2-528; assay: AlamarBlue cell viability assay, A2-528; assay type: cell-based; details: Homo sapiens, Gastric
Experimental: as §2, §3

[7] = tested on: ECC1; assay: AlamarBlue cell viability assay, ECC1; assay type: cell-based; details: Homo sapiens, ECC-1, Endometrial
Experimental: as §2, §3

[8] = tested on: BxPC-3; assay: AlamarBlue cell viability assay, BxPC-3; assay type: cell-based; details: Homo sapiens, Pancreatic
Experimental: as §2, §3

[9] = tested on: high-TFF3 expression MC cells; assay: ApoTox-Glo Triplex Assay and western blot (FIG. 2); assay type: cell-based, human; details: 10 μM
Experimental: Effect of compound 43 (10 μM) on cell viability of high-TFF3 MC cell lines. (A) Cell viability (B) caspase 3/7 activities and (C) cytotoxicity was evaluated using ApoTox-Glo™ Triplex Assay Kit Promega (Singapore) according to manufacturer's instructions. Cell viability fluorescence is measured at 400Ex/505Em, cytotoxicity fluorescence is measured at 485Ex/520Em, while apoptosis (caspase 3/7 activities) is determined by luminescence measurement. (D) Western blot analysis was used to assess the level of various protein markers and protein activity in high-TFF3 expression MC cells after treatment with compound 43. Soluble whole cell extracts were run on a SDS-PAGE and immunoblotted as previously described in Pandey V et al., Breast Cancer Res. 2014; 16(5):429. β-ACTIN (ACTB) was used as input control for cell lysate. The sizes of detected protein bands in kDa are shown on the left side. Statistical significance was assessed by using an unpaired two-tailed Student's t test (P<0.05 was considered as significant) using GraphPad Prism5. Columns are mean of triplicate experiments; bars, ±SD. **P<0.001, *P<0.05.

## Cc1cc(-c2ccc(C3C(C#N)=C(N)Oc4c3c(=O)oc3ccccc43)cc2)cnc1F (stereo not drawn) [Compound 43, 2-Amino-4-(4-(6-fluoro-5-methylpyridin-3-yl)phenyl)-5-oxo-4H,5H-pyrano[3,2-c]chromene-3-carbonitrile]
[1]
  APAF1 mRNA, Fold change relative to vehicle control: 1.27 fold
  ATM mRNA, Fold change relative to vehicle control: 0.80 fold
  BAD mRNA, Fold change relative to vehicle control: 0.04 fold
  BAK1 mRNA, Fold change relative to vehicle control: 1.92 fold
  BAX mRNA, Fold change relative to vehicle control: 21.55 fold
  BCL2L1 mRNA, Fold change relative to vehicle control: 0.05 fold
  BCL2 mRNA, Fold change relative to vehicle control: 0.02 fold
  BCLAF1 mRNA, Fold change relative to vehicle control: 1.26 fold
  BRCA1 mRNA, Fold change relative to vehicle control: 0.47 fold
  CASP7 mRNA, Fold change relative to vehicle control: 103.76 fold
  CCND1 mRNA, Fold change relative to vehicle control: 0.04 fold
  CDC25A mRNA, Fold change relative to vehicle control: 0.15 fold
  CDK2 mRNA, Fold change relative to vehicle control: 1.05 fold
  CDK4 mRNA, Fold change relative to vehicle control: 0.66 fold
  CDKN1A mRNA, Fold change relative to vehicle control: 27.15 fold
  CDKN1B mRNA, Fold change relative to vehicle control: 0.14 fold
  CDKN2A mRNA, Fold change relative to vehicle control: 1.43 fold
  CFLAR mRNA, Fold change relative to vehicle control: 9.08 fold
  CHEK2 mRNA, Fold change relative to vehicle control: 0.85 fold
  Cyclin E1 mRNA, Fold change relative to vehicle control: 0.08 fold
  E2F1 mRNA, Fold change relative to vehicle control: 0.51 fold
  GZMA mRNA, Fold change relative to vehicle control: 3.66 fold
  HTATIP2 mRNA, Fold change relative to vehicle control: 6.64 fold
  MDM2 mRNA, Fold change relative to vehicle control: 0.99 fold
  RB1 mRNA, Fold change relative to vehicle control: 0.86 fold
  S100A4 mRNA, Fold change relative to vehicle control: 4.80 fold
  TERT mRNA, Fold change relative to vehicle control: 0.08 fold
  TNFRSF1A mRNA, Fold change relative to vehicle control: 35.64 fold
  TNFRSF10B mRNA, Fold change relative to vehicle control: 9.22 fold
  TNFRSF25 mRNA, Fold change relative to vehicle control: 7.11 fold
  TP53 mRNA, Fold change relative to vehicle control: 459.09 fold
[2]
  IC50: 3.92 µM
[3]
  APAF1 mRNA, Fold change relative to vehicle control: 0.94 fold
  ATM mRNA, Fold change relative to vehicle control: 0.32 fold
  BAD mRNA, Fold change relative to vehicle control: 0.09 fold
  BAK1 mRNA, Fold change relative to vehicle control: 2.09 fold
  BAX mRNA, Fold change relative to vehicle control: 18.54 fold
  BCL2L1 mRNA, Fold change relative to vehicle control: 0.04 fold
  BCL2 mRNA, Fold change relative to vehicle control: 0.06 fold
  BCLAF1 mRNA, Fold change relative to vehicle control: 0.87 fold
  BRCA1 mRNA, Fold change relative to vehicle control: 2.00 fold
  CASP7 mRNA, Fold change relative to vehicle control: 30.71 fold
  CCND1 mRNA, Fold change relative to vehicle control: 0.01 fold
  CDC25A mRNA, Fold change relative to vehicle control: 0.49 fold
  CDK2 mRNA, Fold change relative to vehicle control: 0.15 fold
  CDK4 mRNA, Fold change relative to vehicle control: 0.18 fold
  CDKN1A mRNA, Fold change relative to vehicle control: 114.92 fold
  CDKN1B mRNA, Fold change relative to vehicle control: 11.08 fold
  CDKN2A mRNA, Fold change relative to vehicle control: 5.45 fold
  CFLAR mRNA, Fold change relative to vehicle control: 0.02 fold
  CHEK2 mRNA, Fold change relative to vehicle control: 1.14 fold
  Cyclin E1 mRNA, Fold change relative to vehicle control: 0.01 fold
  E2F1 mRNA, Fold change relative to vehicle control: 1.80 fold
  GZMA mRNA, Fold change relative to vehicle control: 0.93 fold
  HTATIP2 mRNA, Fold change relative to vehicle control: 2.87 fold
  MDM2 mRNA, Fold change relative to vehicle control: 6.62 fold
  RB1 mRNA, Fold change relative to vehicle control: 1.00 fold
  S100A4 mRNA, Fold change relative to vehicle control: 1.49 fold
  TERT mRNA, Fold change relative to vehicle control: 0.11 fold
  TNFRSF1A mRNA, Fold change relative to vehicle control: 1.15 fold
  TNFRSF10B mRNA, Fold change relative to vehicle control: 1.05 fold
  TNFRSF25 mRNA, Fold change relative to vehicle control: 1.41 fold
  TP53 mRNA, Fold change relative to vehicle control: 282.98 fold
[4]
  IC50: 33.1 µM
[5]
  IC50: 4.12 µM
[6]
  IC50: 34.1 µM
[7]
  IC50: 4.64 µM
[8]
  IC50: 2.56 µM
[9]
  intrinsic apoptosis: stimulates intrinsic apoptosis
